Reference: patent US20110152085A1, “Herbicidal Compositions Comprising Flufenacet” (BAYER CROPSCIENCE AG, priority 2009, published 2011)

Key:
STEME [1] = assay: Greenhouse trial, PE application (comparison with pre-sowing method), weeds; type: in vivo, Stellaria media; details: g of AS/ha: (A) 90, (B) 300
Protocol: (§1) In the standard design of the test, seeds of various broad-leaved weed and weed grass biotypes (origins) were sown in a 8-13 cm diameter pot filled with natural soil of a standard field soil (loamy silt; non-sterile) and covered with a covering soil layer of about 1 cm. The pots were then cultivated in a greenhouse (12-16 h of light, temperature day 20-22° C., night 15-18° C.) until the time of application. The pots were treated on a laboratory track sprayer with spray liquors comprising the compositions according to the invention, mixtures of the prior art or components used individually. Application of the active compounds or active compound combinations formulated as WG, WP, EC or otherwise was carried out at the appropriate growth stages of the plants. The application rate for the spray application was 100-600 l of water/ha. After the treatment, the plants were returned to the greenhouses.
(§2) About 3 weeks after the application, the soil action or/and foliar action was assessed visually according to a scale of 0-100% in comparison to an untreated comparative group: 0%=no noticeable effect compared to the untreated comparative group; 100%=full effect compared to the untreated comparative group. […]

POAAN = assay: Greenhouse trial, post-emergence (PO) action against weeds; type: in vivo, Poa annua; details: PO application; g of AS/ha: (A) 120, (B) 600
Protocol: as §1, §2

AVEFA [2] = assay: as above; type: in vivo, Avena fatua; details: PO application; g of AS/ha: (A) 120, (B) 600
Protocol: as §1, §2

MATCH = assay: Greenhouse trial, PE application on sensitive and resistant biotypes; type: in vivo, Matricaria chamomilla; details: g of AS/ha: (A) 120, (B) 600, iodosulfuron 10; for MATCH resistant activity (visual, scale 0-100%): resistant biotype; for MATCH sensitive activity (visual, scale 0-100%): sensitive biotype
Protocol: as §1
(§3) About 3 weeks after the application, the soil action or/and foliar action was assessed visually according to a scale of 0-100% in comparison to an untreated comparative group: 0%=no noticeable effect compared to the untreated comparative group; 100%=full effect compared to the untreated comparative group.
(§4) (notes: the term “seeds” also includes vegetative propagation forms such as, for example, rhizome pieces; abbreviations used: h light=hours of illumination, g of AS/ha=gram of active substance per hectare, l/ha=liter per hectare, S=sensitive, R=resistant) • 1. Pre-emergence action against weeds: seeds of various broad-leaved weed and weed grass biotypes (origins) were sown in a 8-13 cm diameter pot filled with natural soil of a standard field soil (loamy silt; non-sterile) and covered with a covering soil layer of about 1 cm. The pots were then cultivated in a greenhouse (12-16 h of light, temperature day 20-22° C., night 15-18° C.) until the time of application. The pots were treated at the BBCH stage 00-10 of the seeds/plants on a laboratory track sprayer with spray liquors comprising the compositions according to the invention, mixtures or components used individually, as WG, WP, EC or other formulations. The application rate for the spray application was 100-600 l of water/ha. After the treatment, the plants were returned to the greenhouses and, when required, treated with fertilizer and watered. • 2. Post-emergence action against weeds: seeds of various broad-leaved weed and weed grass biotypes (origins) were sown in a 8-13 cm diameter pot filled with natural soil of a standard field soil (loamy silt; non-sterile) and covered with a covering soil layer of about 1 cm. The pots were then cultivated in a greenhouse (12-16 h of light, temperature day 20-22° C., night 15-18° C.) until the time of application. The pots were treated at various BBCH stages between 11-25 of the seeds/plants, i.e. generally between two to three weeks after the start of the cultivation, on a laboratory track sprayer with spray liquors comprising the compositions according to the invention, mixtures or components used individually, as WG, WP, EC or other formulations. The application rate for the spray application was 100-600 l of water/ha. After the treatment, the plants were returned to the greenhouses and, when required, treated with fertilizer and watered. • 3. Pre-emergence action against weeds with and without incorporation of active compound: seeds of various broad-leaved weed and weed grass biotypes (origins) were sown in a 8-13 cm diameter pot filled with natural soil of a standard field soil (loamy silt; non-sterile). […]

HORVS = assay: Greenhouse trial, selective post-emergence (PO) action, crop plant; type: in vivo, Hordeum vulgare, summer barley; details: PO application, g of AS/ha: (A) 120, (B) 600
Protocol: as §1, §2

STEME [3] = assay: Greenhouse trial, PE application on sensitive and resistant biotypes; type: in vivo, Stellaria media; details: g of AS/ha: (A) 120, (B) 600, iodosulfuron 10; for STEME resistant activity (visual, scale 0-100%): resistant biotype; for STEME sensitive activity (visual, scale 0-100%): sensitive biotype
Protocol: as §1, §3, §4

AVEFA [4] = assay: Greenhouse trial, PE application (comparison with pre-sowing method), weeds; type: in vivo, Avena fatua; details: g of AS/ha: (A) 90, (B) 300
Protocol: as §1, §2

TRZAS [5] = assay: Greenhouse trial, incorporation of active compound into the soil covering layer, crop plant; type: in vivo, Triticum aestivum, summer wheat; details: g of AS/ha: (A) 90, (B) 300, (C) mefenpyr 300
Protocol: as §1, §2

HORVW [6] = assay: as above; type: in vivo, Hordeum vulgare, winter barley; details: g of AS/ha: (A) 90, (B) 300, (C) mefenpyr 300
Protocol: as §1, §2

VIOAR [7] = assay: Greenhouse trial, pre-emergence (PE) soil application, action against weeds; type: in vivo, Viola arvensis; details: g of AS/ha: (A) 90, (B) 300, (C) mefenpyr 300, about 3 weeks after application
Protocol: as §1, §2

TRZAS [8] = assay: Greenhouse trial, pre-sowing application 7 days prior to sowing, crop plant; type: in vivo, Triticum aestivum, summer wheat; details: g of AS/ha: (A) 90, (B) 300
Protocol: as §1, §2

STEME [9] = assay: Greenhouse trial, pre-sowing application 7 days prior to sowing, weeds; type: in vivo, Stellaria media; details: g of AS/ha: (A) 90, (B) 300
Protocol: as §1, §2

TRZAS [10] = assay: Greenhouse trial, selective pre-emergence action (PE application), crop plant; type: in vivo, Triticum aestivum, summer wheat
Protocol: as §1, §3
(§5) (notes: the term “seeds” also includes vegetative propagation forms such as, for example, rhizome pieces; abbreviations used: h light=hours of illumination, g of AS/ha=gram of active substance per hectare, l/ha=liter per hectare, S=sensitive, R=resistant) • 1. Pre-emergence action against weeds: seeds of various broad-leaved weed and weed grass biotypes (origins) were sown in a 8-13 cm diameter pot filled with natural soil of a standard field soil (loamy silt; non-sterile) and covered with a covering soil layer of about 1 cm. The pots were then cultivated in a greenhouse (12-16 h of light, temperature day 20-22° C., night 15-18° C.) until the time of application. The pots were treated at the BBCH stage 00-10 of the seeds/plants on a laboratory track sprayer with spray liquors comprising the compositions according to the invention, mixtures or components used individually, as WG, WP, EC or other formulations. The application rate for the spray application was 100-600 l of water/ha. After the treatment, the plants were returned to the greenhouses and, when required, treated with fertilizer and watered. • 2. Post-emergence action against weeds: seeds of various broad-leaved weed and weed grass biotypes (origins) were sown in a 8-13 cm diameter pot filled with natural soil of a standard field soil (loamy silt; non-sterile) and covered with a covering soil layer of about 1 cm. The pots were then cultivated in a greenhouse (12-16 h of light, temperature day 20-22° C., night 15-18° C.) until the time of application. […]

VIOAR [11] = assay: Greenhouse trial, incorporation of active compound into the soil covering layer, action against weeds; type: in vivo, Viola arvensis; details: g of AS/ha: (A) 90, (B) 300, (C) mefenpyr 300
Protocol: as §1, §2

AVEFA [12] = assay: Greenhouse trial, pre-sowing application 7 days prior to sowing, weeds; type: in vivo, Avena fatua; details: g of AS/ha: (A) 90, (B) 300
Protocol: as §1, §2

TRZAW [13] = assay: Greenhouse trial, selective pre-emergence action (PE application), crop plant; type: in vivo, Triticum aestivum, winter wheat; details: g of AS/ha: (A) 90, (B) 300, (C) mefenpyr 300
Protocol: as §1, §2

HORVW [14] = assay: as above; type: in vivo, Hordeum vulgare, winter barley; details: g of AS/ha: (A) 90, (B) 300, (C) mefenpyr 300
Protocol: as §1, §2

TRZAW [15] = assay: Greenhouse trial, incorporation of active compound into the soil covering layer, crop plant; type: in vivo, Triticum aestivum, winter wheat; details: g of AS/ha: (A) 90, (B) 300, (C) mefenpyr 300
Protocol: as §1, §2

LOLPE = assay: Greenhouse trial, PE application with different soil types; type: in vivo, Lolium perenne; details: g of AS/ha: (A) 90, (B) 300
Protocol: as §1, §3, §5

ALOMY = assay: Greenhouse trial, post-emergence (PO) action against weeds; type: in vivo, Alopecurus myosuroides; details: PO application; g of AS/ha: (A) 120, (B) 600
Protocol: as §1, §2

[16] = g of AS/ha: (A) 90, (B) 300, (C) mefenpyr 300
[17] = g of AS/ha: (A) 90, (B) 300, Table 3

CC(C)N(C(=O)COc1nnc(C(F)(F)F)s1)c1ccc(F)cc1 [(A) flufenacet, N-(4-fluorophenyl)-N-(1-methylethyl)-2-[[5-(trifluoromethyl)-1,3,4-thiadiazol-2-yl]oxy]acetamide]
STEME activity (visual, scale 0-100%) (STEME [1]): 0%
POAAN activity (visual, scale 0-100%) (POAAN): 60%
AVEFA activity (visual, scale 0-100%) (AVEFA [2]): 70%
MATCH resistant activity (visual, scale 0-100%) (MATCH): 50%
MATCH sensitive activity (visual, scale 0-100%) (MATCH): 50%
HORVS activity (visual, scale 0-100%) (HORVS): 40%
STEME resistant activity (visual, scale 0-100%) (STEME [3]): 0%
STEME sensitive activity (visual, scale 0-100%) (STEME [3]): 0%
AVEFA activity (visual, scale 0-100%) (AVEFA [4]): 80%
TRZAS activity (visual, scale 0-100%) (TRZAS [5]): 50%
HORVW activity (visual, scale 0-100%) (HORVW [6]): 60%
VIOAR activity (visual, scale 0-100%) (VIOAR [7]): 0%
TRZAS activity (visual, scale 0-100%) (TRZAS [8]): 50%
STEME activity (visual, scale 0-100%) (STEME [9]): 35%
TRZAS activity (visual, scale 0-100%) (TRZAS [10]; [16]): 20%
TRZAS activity (visual, scale 0-100%) (TRZAS [10]; [17]): 20%
VIOAR activity (visual, scale 0-100%) (VIOAR [11]): 0%
AVEFA activity (visual, scale 0-100%) (AVEFA [12]): 70%
TRZAW activity (visual, scale 0-100%) (TRZAW [13]): 30%
HORVW activity (visual, scale 0-100%) (HORVW [14]): 20%
TRZAW activity (visual, scale 0-100%) (TRZAW [15]): 60%
LOLPE IU soil activity (visual, scale 0-100%) (LOLPE): 95%
LOLPE IU/EC73 soil activity (visual, scale 0-100%) (LOLPE): 74%
ALOMY activity (visual, scale 0-100%) (ALOMY): 65%

CCCN(CCC)c1c([N+](=O)[O-])cc(C(F)(F)F)cc1[N+](=O)[O-] [(B) trifluralin, 2,6-dinitro-N,N-dipropyl-4-(trifluoromethyl)benzenamine]
STEME activity (visual, scale 0-100%) (STEME [1]): 10%
POAAN activity (visual, scale 0-100%) (POAAN): 40%
AVEFA activity (visual, scale 0-100%) (AVEFA [2]): 20%
MATCH resistant activity (visual, scale 0-100%) (MATCH): 20%
MATCH sensitive activity (visual, scale 0-100%) (MATCH): 20%
HORVS activity (visual, scale 0-100%) (HORVS): 20%
STEME resistant activity (visual, scale 0-100%) (STEME [3]): 20%
STEME sensitive activity (visual, scale 0-100%) (STEME [3]): 20%
AVEFA activity (visual, scale 0-100%) (AVEFA [4]): 70%
TRZAS activity (visual, scale 0-100%) (TRZAS [5]): 90%
HORVW activity (visual, scale 0-100%) (HORVW [6]): 60%
VIOAR activity (visual, scale 0-100%) (VIOAR [7]): 0%
TRZAS activity (visual, scale 0-100%) (TRZAS [8]): 20%
STEME activity (visual, scale 0-100%) (STEME [9]): 30%
TRZAS activity (visual, scale 0-100%) (TRZAS [10]; [16]): 0%
TRZAS activity (visual, scale 0-100%) (TRZAS [10]; [17]): 0%
VIOAR activity (visual, scale 0-100%) (VIOAR [11]): 10%
AVEFA activity (visual, scale 0-100%) (AVEFA [12]): 60%
TRZAW activity (visual, scale 0-100%) (TRZAW [13]): 20%
HORVW activity (visual, scale 0-100%) (HORVW [14]): 0%
TRZAW activity (visual, scale 0-100%) (TRZAW [15]): 100%
LOLPE IU soil activity (visual, scale 0-100%) (LOLPE): 55%
LOLPE IU/EC73 soil activity (visual, scale 0-100%) (LOLPE): 0%
ALOMY activity (visual, scale 0-100%) (ALOMY): 30%

COc1nc(C)nc(NC(=O)NS(=O)(=O)c2cc(I)ccc2C(=O)O)n1 [(C) iodosulfuron]
MATCH resistant activity (visual, scale 0-100%) (MATCH): 60%
MATCH sensitive activity (visual, scale 0-100%) (MATCH): 100%
STEME resistant activity (visual, scale 0-100%) (STEME [3]): 40%
STEME sensitive activity (visual, scale 0-100%) (STEME [3]): 90%
